Assay results reported in paper PMC4303209, “A novel phosphatidylinositol 3-kinase (PI3K) inhibitor directs a potent FOXO-dependent, p53-independent cell cycle arrest phenotype characterized by the differential induction of a subset of FOXO-regulated genes” (Breast Cancer Research : BCR, 2014).

Test system: MCF-7 breast cancer cells
Test: Microarray gene expression analysis (Agilent whole human genome 4 x 44K; compound vs DMSO, LIMMA log2 fold change)
Type: cell-based

Compound: Oc1cccc(-c2nc(N3CCOCC3)c3oc4ncccc4c3n2)c1 [PI-103]
- log2FC SENP2 (gene SENP2 (Gene 59343), cell cycle genes): -0.06
- SERINC3 log2FC (gene SERINC3 (10955), apoptosis genes): 0.115
- SERPINE1 log2FC (gene SERPINE1 (5054), apoptosis genes): -0.018
- log2FC (gene SESN1 (Gene 27244), cell cycle genes): -0.06
- SHF log2FC (gene SHF (90525), apoptosis genes): 0.016
- SKIL log2FC (gene SKIL (6498), apoptosis genes): 0.039
- log2FC SKIL (gene SKIL (Gene 6498), cell cycle genes): 0.04
- log2FC (gene SLBP (Gene 7884), cell cycle genes): 0.11
- SLC25A6 log2FC (gene SLC25A6 (293), apoptosis genes): -0.018
- log2FC SLC26A8 (gene SLC26A8 (Gene 116369), cell cycle genes): -0.065
- SLC40A1 log2FC (gene SLC40A1 (30061), apoptosis genes): -0.00212
- SMAD1 log2FC (gene SMAD1 (4086), apoptosis genes): -0.215
- SMNDC1 log2FC (gene SMNDC1 (10285), apoptosis genes): -0.319
- SOD1 log2FC (gene SOD1 (6647), apoptosis genes): 0.105
- SOS1 log2FC (gene SOS1 (6654), apoptosis genes): 0.010
- SOX8 log2FC (gene SOX8 (30812), apoptosis genes): -0.456
- log2FC SPO11 (gene SPO11 (Gene 23626), cell cycle genes): 0.0237
- SPTAN1 log2FC (gene SPTAN1 (6709), apoptosis genes): 0.362
- log2FC (gene SRC (Gene 6714), cell cycle genes): -0.35
- log2FC (gene STAG1 (Gene 10274), cell cycle genes): 0.32
- STK3 log2FC (gene STK3 (6788), apoptosis genes): 0.109
- SULF1 log2FC (gene SULF1 (23213), apoptosis genes): -0.171
- log2FC (gene SUPT5H (Gene 6829), cell cycle genes): 0.00774
- log2FC (gene SUV39H2 (Gene 79723), cell cycle genes): -0.56
- SYCP2 log2FC (gene SYCP2 (10388), apoptosis genes): 0.019
- log2FC SYCP2 (gene SYCP2 (Gene 10388), cell cycle genes): 0.02
- log2FC SYCP3 (gene SYCP3 (Gene 50511), cell cycle genes): -0.03
- log2FC (gene TAF2 (Gene 6873), cell cycle genes): 0.21
- log2FC TAF6 (gene TAF6 (Gene 6878), cell cycle genes): 0.22
- log2FC (gene TAOK2 (Gene 9344), cell cycle genes): -0.25
- TEK log2FC (gene TEK (7010), apoptosis genes): -0.024
- log2FC (gene TEX14 (Gene 56155), cell cycle genes): 0.17
- log2FC (gene TEX15 (Gene 56154), cell cycle genes): 0.23
- TFAP2D log2FC (gene TFAP2D (83741), apoptosis genes): 0.021
- log2FC (gene TGFA (Gene 7039), cell cycle genes): -0.53
- TGFB2 log2FC (gene TGFB2 (7042), apoptosis genes): -0.026
- log2FC TGFB2 (gene TGFB2 (Gene 7042), cell cycle genes): -0.0258
- THEM4 log2FC (gene THEM4 (117145), apoptosis genes): -0.280
- log2FC THOC5 (gene THOC5 (Gene 8563), cell cycle genes): 0.0165
- TMBIM4 log2FC (gene TMBIM4 (51643), apoptosis genes): -0.154
- log2FC (gene TMEM67 (Gene 91147), cell cycle genes): 0.17
- TMEM102 log2FC (gene TMEM102 (284114), apoptosis genes): 0.338
- TNFRSF1B log2FC (gene TNFRSF1B (7133), apoptosis genes): -0.040
- TNFRSF8 log2FC (gene TNFRSF8 (943), apoptosis genes): 0.099
- TNFRSF10C log2FC (gene TNFRSF10C (8794), apoptosis genes): 0.011
- TNFSF8 log2FC (gene TNFSF8 (944), apoptosis genes): -0.011
- TNFSF9 log2FC (gene TNFSF9 (8744), apoptosis genes): 0.192
- TNFSF10 log2FC (gene TNFSF10 (8743), apoptosis genes): 0.00148
- TNFSF12 log2FC (gene TNFSF12 (8742), apoptosis genes): 0.353
- TNFSF14 log2FC (gene TNFSF14 (8740), apoptosis genes): 0.027
- TNFSF15 log2FC (gene TNFSF15 (9966), apoptosis genes): 0.054
- TNFSF18 log2FC (gene TNFSF18 (8995), apoptosis genes): 0.071
- log2FC (gene TP73 (Gene 7161), cell cycle genes): -0.25
- log2FC (gene TPD52L1 (Gene 7164), cell cycle genes): 0.15
- TPX2 log2FC (gene TPX2 (22974), apoptosis genes): -0.00173
- TRAF2 log2FC (gene TRAF2 (7186), apoptosis genes): -0.347
- TRAF3IP2 log2FC (gene TRAF3IP2 (10758), apoptosis genes): -0.037
- log2FC TRIP13 (gene TRIP13 (Gene 9319), cell cycle genes): -0.38
- log2FC (gene TUBGCP6 (Gene 85378), cell cycle genes): -0.19
- TXNDC5 log2FC (gene TXNDC5 (81567), apoptosis genes): -0.039
- log2FC TYMS (gene TYMS (Gene 7298), cell cycle genes): -0.08
- UBD log2FC (gene UBD (10537), apoptosis genes): -0.037
- UBE2V2 log2FC (gene UBE2V2 (7336), apoptosis genes): -0.365
- UNC13B log2FC (gene UNC13B (10497), apoptosis genes): 0.046
- VDAC2 log2FC (gene VDAC2 (7417), apoptosis genes): -0.094
- VIM log2FC (gene VIM (7431), apoptosis genes): 0.122
- VIP log2FC (gene VIP (7432), apoptosis genes): -0.302
- VNN1 log2FC (gene VNN1 (8876), apoptosis genes): -0.010
- log2FC (gene VRK1 (Gene 7443), cell cycle genes): 0.16
- WNK3 log2FC (gene WNK3 (65267), apoptosis genes): -0.015
- log2FC (gene WTAP (Gene 9589), cell cycle genes): -0.47
- log2FC (gene YY1AP1 (Gene 55249), cell cycle genes): 0.31
- ZBTB16 log2FC (gene ZBTB16 (7704), apoptosis genes): -0.00549
- log2FC ZC3H12D (gene ZC3H12D (Gene 85313), cell cycle genes): -0.0743
- log2FC (gene ZC3HC1 (Gene 51530), cell cycle genes): 0.16
- ZNF205 log2FC (gene ZNF205 (7755), apoptosis genes): -0.247
- ZNF443 log2FC (gene ZNF443 (10224), apoptosis genes): -0.204
- log2FC (gene ZNF503 (Gene 84858), cell cycle genes): -0.12
- ZNF622 log2FC (gene ZNF622 (90441), apoptosis genes): -0.120
